Earlier results as cited in patent publication US20250319149A1, “COMPOSITIONS FOR TREATING IMBALANCES OF THE GUT MICROBIOTA” (Provexis Natural Products Limited, priority 2022, published 2025).

Tested on: TMAO-induced atherosclerosis
Conditions: mice; Chen et al.

**Q.** Which TMAO-induced atherosclerosis does the source give for `Oc1ccc(C=Cc2cc(O)cc(O)c2)cc1` [resveratrol] here?
**A.** attenuated
